This note sets out measurements from PubChem BioAssay AID294 (DTP/NCI, 2004).

“And” between values parts separate entries of the source, which are not always exact repeats. Identical values can stand only once.

The experiment deals with MX-1 breast xenograft, nude mice, tumor weight change. Briefly: NCI In Vivo Anticancer Drug Screen. Data for tumor model Human Mammary Carcinoma MX-1 Xenograft (subcutaneous) in NU/NU Swiss (nude) mice. As to conditions: endpoint: optimum tumor weight change, higher = larger tumour. As for the experimental part:
The antitumor activity of compounds was measured in mice bearing transplantable tumors. Survival or tumor size were measured and the results are expressed as the measurement made in the treated group (T) divided by the measurement made in the vehicle treated control group (C). The tumor model used in this assay is Human Mammary Carcinoma MX-1 Xenograft (subcutaneous) in NU/NU Swiss (nude) mice
In general terms: In xenograft studies the graft and the host belong to different species.

Where [1] appears, read: dose: 50.0 mg/kg/injection, schedule: Q04DX003 (ip), vehicle: Klucel (hydroxypropylcellulose) (HPC).
The mark [2] stands for this setting: dose: 100.0 mg/kg/injection, schedule: Q04DX003 (ip), vehicle: Klucel (hydroxypropylcellulose) (HPC).
Where [3] appears, read: dose: 16.0 mg/kg/injection, schedule: Q04DX003 (ip), vehicle: saline.
The mark [4] stands for this setting: dose: 100.0 mg/kg/injection, schedule: Q04DX003 (ip), vehicle: suspension in saline.
Setting [5] is: dose: 200.0 mg/kg/injection, schedule: Q04DX003 (ip), vehicle: suspension in saline.
[6] abbreviates: dose: 400.0 mg/kg/injection, schedule: Q04DX003 (ip), vehicle: suspension in saline.
The mark [7] stands for this setting: dose: 12.5 mg/kg/injection, schedule: Q04DX003 (ip), vehicle: saline.
Where [8] appears, read: dose: 25.0 mg/kg/injection, schedule: Q04DX003 (ip), vehicle: saline.
Setting [9] is: dose: 50.0 mg/kg/injection, schedule: Q04DX003 (ip), vehicle: saline.
Where [10] appears, read: dose: 200.0 mg/kg/injection, schedule: Q04DX003 (ip), vehicle: saline.
Setting [11] is: dose: 400.0 mg/kg/injection, schedule: Q04DX003 (ip), vehicle: saline.
Setting [12] is: dose: 3.13 mg/kg/injection, schedule: Q04DX003 (ip), vehicle: saline.
[13] abbreviates: dose: 7.5 mg/kg/injection, schedule: Q04DX003 (ip), vehicle: saline.
Where [14] appears, read: dose: 30.0 mg/kg/injection, schedule: Q04DX003 (ip), vehicle: saline.
Setting [15] is: dose: 60.0 mg/kg/injection, schedule: Q04DX003 (ip), vehicle: saline.

On to `OCC1OC(n2cnc3c2NC=NC[C@H]3O)CC1O` (stereo partly specified), for which the T/C is 77 % of control (dose: 4.0 mg/kg/injection, schedule: Q04DX003 (ip), vehicle: water); 78 % of control (dose: 8.0 mg/kg/injection, schedule: Q04DX003 (ip), vehicle: water); 49 % of control (dose: 16.0 mg/kg/injection, schedule: Q04DX003 (ip), vehicle: water).
Consider `CC(=O)OCC(=O)[C@@]12OC(C)(C)O[C@@H]1C[C@H]1[C@@H]3CC(C=O)=C4C=C(OCCCl)CC[C@]4(C)[C@@]3(F)[C@@H](O)C[C@@]12C`, for which, under setting [1], the T/C is 54 % of control.
On to `CS(=O)(=O)OCCN(CCOS(C)(=O)=O)c1ccc(C=Nc2ccc(-c3csc(COc4ccccc4)n3)cc2)cc1`, for which the T/C reads like this: (dose: 25.0 mg/kg/injection, schedule: Q04DX003 (ip), vehicle: Klucel (hydroxypropylcellulose) (HPC)) 45 % of control; under setting [1], 64 % of control; under setting [2], 99 % of control.
`CC1OC(OC2CC(O)(C(=O)CO)Cc3c(O)c4c(c(O)c32)C(=O)c2ccccc2C4=O)CC(N)C1O` (stereo unspecified): the T/C is, setting by setting: (dose: 0.25 mg/kg/injection, schedule: Q04DX003 (ip), vehicle: water) 104 % of control; (dose: 0.5 mg/kg/injection, schedule: Q04DX003 (ip), vehicle: water) 104 % of control.
`O=Cc1ccc(O)c(O)c1`: the T/C by setting is: (dose: 50.0 mg/kg/injection, schedule: Q04DX003 (ip), vehicle: saline with Tween-80) 63 % of control; (dose: 400.0 mg/kg/injection, schedule: Q04DX003 (ip), vehicle: saline with Tween-80) 89 % of control.
With `CC[C@](O)(C(=O)O)c1cc2n(c(=O)c1CO)Cc1cc3ccccc3nc1-2`, the T/C reads like this: (dose: 4.5 mg/kg/injection, schedule: Q04DX003 (ip), vehicle: saline) 122 % of control; (dose: 9.0 mg/kg/injection, schedule: Q04DX003 (ip), vehicle: saline) 97 % of control; under setting [3], 44 % of control; (dose: 18.0 mg/kg/injection, schedule: Q04DX003 (ip), vehicle: saline) 59 % of control; (dose: 36.0 mg/kg/injection, schedule: Q04DX003 (ip), vehicle: saline) 70 % of control.
On to `O=C(NO)c1ccccc1`, for which the T/C runs as follows: (dose: 25.0 mg/kg/injection, schedule: Q01DX003 (ip), vehicle: saline) 82 % of control; (dose: 50.0 mg/kg/injection, schedule: Q01DX003 (ip), vehicle: saline) 108 % of control; (dose: 100.0 mg/kg/injection, schedule: Q01DX003 (ip), vehicle: saline) 42 % of control.
Turning to `CC(=O)OCC1OC(n2ccc(N)nc2=O)C(OC(C)=O)C1OC(C)=O` (stereo unspecified), the T/C is, setting by setting: under setting [4], 60 % of control; under setting [5], 62 % of control; under setting [6], 39 % of control; (dose: 800.0 mg/kg/injection, schedule: Q04DX003 (ip), vehicle: suspension in saline) 39 % of control.
As for `NC(=O)c1ccc[n+](Cc2c(Cl)cccc2Cl)c1`, the T/C (dose: 3.0 mg/kg/injection, schedule: Q04DX003 (ip), vehicle: saline) was 169 % of control; the T/C (dose: 24.0 mg/kg/injection, schedule: Q04DX003 (ip), vehicle: saline) was 111 % of control and 112 % of control; the T/C (dose: 96.0 mg/kg/injection, schedule: Q04DX003 (ip), vehicle: saline) was 100 % of control.
As for `O=C1N(Cl)C(=O)C(c2ccc(Cl)cc2)(c2ccc(Cl)cc2)N1Cl`, the T/C (dose: 100.0 mg/kg/injection, schedule: Q04DX003 (ip), vehicle: saline with Tween-80) was 98 % of control.
In the case of `C=CC(=O)N1CN(C(=O)C=C)CN(C(=O)C=C)C1`, under “dose: 12.5 mg/kg/injection, schedule: Q04DX003 (ip), vehicle: saline with Tween-80”, the T/C was 52 % of control.
As to `OCC1OC(n2cnc3cncnc32)C(O)C1O` (stereo unspecified), the T/C by setting is: under setting [7], 88 % of control; under setting [8], 94 % of control; under setting [9], 108 % of control.
Regarding `Cn1cnc([N+](=O)[O-])c1[Se]c1nc(N)nc2nc[nH]c12`, the T/C reads like this: (dose: 12.5 mg/kg/injection, schedule: Q04DX003 (ip), vehicle: water) 103 % of control; (dose: 25.0 mg/kg/injection, schedule: Q04DX003 (ip), vehicle: water) 84 % of control; (dose: 50.0 mg/kg/injection, schedule: Q04DX003 (ip), vehicle: water) 60 % of control.
Take `CNC=O`: the T/C by setting is: under setting [10], 7 % of control and 29 % of control; under setting [11], -1 % of control and 17 % of control; (dose: 800.0 mg/kg/injection, schedule: Q04DX003 (ip), vehicle: saline) -12 % of control; (dose: 1600.0 mg/kg/injection, schedule: Q04DX003 (ip), vehicle: saline) -64 % of control.
Take `COc1cc([C@@H]2c3cc4c(c(O)c3C[C@H]3COC(=O)[C@@H]32)OCO4)cc(OC)c1OC`: the T/C reads like this: (dose: 2.5 mg/kg/injection, schedule: Q04DX003 (ip), vehicle: saline) 113 % of control; (dose: 5.0 mg/kg/injection, schedule: Q04DX003 (ip), vehicle: saline) 64 % of control; (dose: 10.0 mg/kg/injection, schedule: Q04DX003 (ip), vehicle: saline) 112 % of control.
For `CN(C)N=Nc1ccccc1`, under setting [1], the T/C was 221 % of control.
On to `COc1cc([C@@H]2c3cc4c(c(O)c3C[C@H]3COC(=O)[C@@H]32)OCO4)cc(OC)c1O`, for which the T/C was 92 % of control under setting [12] and 57 % of control (dose: 6.25 mg/kg/injection, schedule: Q04DX003 (ip), vehicle: saline).
On to `O=C[C@@H](CO)O[C@H](C=O)n1cnc2c(=O)[nH]cnc21`, for which, under setting [11], the T/C is 29 % of control.
Take `CCCCNCCCNCCCNC(=O)c1csc(-c2csc(CCNC(=O)C(NC(=O)C(C)C(O)C(C)NC(=O)C(NC(=O)c3nc(C(CC(N)=O)NCC(N)C(N)=O)nc(N)c3C)C(OC3OC(CO)C(O)C(O)C3OC3OC(CO)C(O)C(OC(N)=O)C3O)c3cnc[nH]3)C(C)O)n2)n1` (stereo unspecified): the T/C is 49 % of control and 57 % of control under setting [13]; 29 % of control (2×) and 49 % of control under setting [14]; 5 % of control and 12 % of control and 18 % of control under setting [15]; 2 % of control (dose: 120.0 mg/kg/injection, schedule: Q04DX003 (ip), vehicle: saline).
In the case of `Nc1cc2[nH]cnc2c(=O)[nH]1`, the T/C under setting [9] was 58 % of control; the T/C (dose: 100.0 mg/kg/injection, schedule: Q04DX003 (ip), vehicle: saline) was 87 % of control; the T/C under setting [10] was 59 % of control.
For `CC(CN1CC(=O)NC(=O)C1)N1CC(=O)NC(=O)C1` (stereo unspecified), the T/C was 65 % of control under setting [4], 73 % of control under setting [5] and 55 % of control under setting [6].
`Cc1c(N)nc([C@H](CC(N)=O)NC[C@H](N)C(N)=O)nc1C(=O)N[C@H](C(=O)N[C@H](C)[C@@H](O)[C@H](C)C(=O)N[C@H](C(=O)NCCc1nc(-c2nc(C(=O)NCCC[S+](C)C)cs2)cs1)[C@@H](C)O)C(OC1OC(CO)C(O)C(O)C1OC1OC(CO)C(O)C(OC(N)=O)C1O)c1cnc[nH]1` (stereo partly specified): the T/C reads like this: (dose: 3.75 mg/kg/injection, schedule: Q04DX003 (ip), vehicle: saline) 52 % of control; (dose: 4.0 mg/kg/injection, schedule: Q04DX003 (ip), vehicle: saline) 55 % of control; under setting [13], 40 % of control and 41 % of control; (dose: 8.0 mg/kg/injection, schedule: Q04DX003 (ip), vehicle: saline) 55 % of control and 67 % of control; (dose: 15.0 mg/kg/injection, schedule: Q04DX003 (ip), vehicle: saline) 31 % of control (2×) and 39 % of control; under setting [3], 32 % of control and 39 % of control. Further, the T/C runs as follows: under setting [14], 17 % of control and 21 % of control and 25 % of control; (dose: 32.0 mg/kg/injection, schedule: Q04DX003 (ip), vehicle: saline) 15 % of control and 22 % of control and 27 % of control; under setting [15], 13 % of control and 21 % of control; (dose: 64.0 mg/kg/injection, schedule: Q04DX003 (ip), vehicle: saline) 16 % of control and 27 % of control.
For the compound `C=C(C)[C@H]1Cc2c(ccc3c2O[C@@H]2COc4cc(OC)c(OC)cc4[C@@H]2C3=O)O1`, the T/C reads like this: under setting [12], 66 % of control; under setting [7], 86 % of control; under setting [8], 76 % of control.
Regarding `Cc1cc(N(CCOS(C)(=O)=O)CCOS(C)(=O)=O)ccc1C=Nc1ccc(-c2nc(Cc3ccccc3)sc2C)cc1`, the T/C reads like this: under setting [1], 46 % of control; under setting [2], -84 % of control; (dose: 200.0 mg/kg/injection, schedule: Q04DX003 (ip), vehicle: Klucel (hydroxypropylcellulose) (HPC)) -73 % of control.
